Source: US20060135587A1, “Method and compounds for promoting healing and reducing inflammation” (priority 2002, published 2006)

Legend:
[1] = tested on: cryogenic ulcer of the gastric mucosa; experiment: Cryogenic gastric ulcer in rats; format: in vivo; details: for reduction of the size of lesions in the gastric mucosa: day 14
Protocol: The models used gastric ulcers induced by
c) Ulcer created by local wounding with a cryogenic probe using a method similar to that described above for mouth ulcers.
The compounds were administered intraperitoneally at a dose of 20 mg/kg; in the cryogenic ulcer model compound 2 was administered either intraperitoneally (10 mg/kg) or orally (20 mg/kg twice daily, ie. a total of 40 mg/kg/day) and was compared to orally-administered gastrocepin (1 mg/kg twice daily, ie. a total of 2 mg/kg/day).

[2] = Rat peripheral blood indicators during full-thickness skin wound treatment; format: in vivo, rats
Protocol: Peripheral blood indicators (leucocytes, leucocyte formula, erythrocyte sedimentation rate) of the rats from the test and control groups were measured before the animals were wounded, and then checked on the fifth, tenth and fifteenth days of the experiment. No reproducible changes compared to the blood characteristics of the intact animals prior to wounding were identified from the haematological indicators of rats treated with Compound 2.

[3] = healing effect over the course of 14 days, twice daily, oral

## CC[n+]1cn(C)c(C(=O)NC)c1C(=O)NC.O=S(=O)([O-])c1ccccc1 [Compound 2, 1-methyl-3-ethyl-4,5-bis(N-methylcarbamoyl)-imidazolium benzenesulfonate]
[1]; 10 mg/kg intraperitoneally
  reduction of the size of lesions in the gastric mucosa: 53%
[1]; daily dose of 40 mg/kg orally
  reduction of the size of lesions in the gastric mucosa: 51%
[1]; [3]
  % reduction of degree of ulceration: 62%
  Average number of lesions per animal: 9.4 ± 1.0
[2]; day 5
  ESR mm/h: 2.2 ± 0.6 mm/h
  Leucocyte count (%) Band neutrophils: 1.4 ± 0.4%
  Leucocyte count (%) Segmented neutrophils: 35.2 ± 4.4%
  Leucocyte count (%) basophils: 0%
  Leucocyte count (%) eosinophils: 2.6 ± 0.6%
  Leucocyte count (%) lymphocytes: 52.6 ± 4.5%
  Leucocyte count (%) monocytes: 8.2 ± 0.8%
  Leucocytes 10^9/l: 6.6 ± 0.9 10^9/l
[2]; day 10
  ESR mm/h: 1.0 ± 0 mm/h
  Leucocyte count (%) Band neutrophils: 1.2 ± 0.2%
  Leucocyte count (%) Segmented neutrophils: 29.6 ± 2.2%
  Leucocyte count (%) basophils: 0.6 ± 0.2%
  Leucocyte count (%) eosinophils: 2.4 ± 0.5%
  Leucocyte count (%) lymphocytes: 63.8 ± 1.9%
  Leucocyte count (%) monocytes: 2.4 ± 0.5%
  Leucocytes 10^9/l: 7.9 ± 0.6 10^9/l
[2]; day 15
  European Search Report mm/h: 1.4 ± 0.2 mm/h
  Leucocyte count (%) Band neutrophils: 1.2 ± 0.2%
  Leucocyte count (%) Segmented neutrophils: 21.0 ± 3.1%
  Leucocyte count (%) basophils: 0.4 ± 0.2%
  Leucocyte count (%) eosinophils: 2.8 ± 0.2%
  Leucocyte count (%) lymphocytes: 70.6 ± 3.4%
  Leucocyte count (%) monocytes: 4.0 ± 0.7%
  Leucocytes 10^9/1: 11.1 ± 1.6 10^9/1
